In US7915050B2, “Regulatory genes for plant differentiation and growth, and use of the same” (National University Corporation Nagoya University, priority 2005, dated 2011):

Molecular target: T1, AtGID1c in the presence of GAI (Arabidopsis thaliana, UniProt Q940G6)
T1 construct: made in house; host or cells: E. coli (stated for AtGID1)
T1 sequence (Q940G6 1-344): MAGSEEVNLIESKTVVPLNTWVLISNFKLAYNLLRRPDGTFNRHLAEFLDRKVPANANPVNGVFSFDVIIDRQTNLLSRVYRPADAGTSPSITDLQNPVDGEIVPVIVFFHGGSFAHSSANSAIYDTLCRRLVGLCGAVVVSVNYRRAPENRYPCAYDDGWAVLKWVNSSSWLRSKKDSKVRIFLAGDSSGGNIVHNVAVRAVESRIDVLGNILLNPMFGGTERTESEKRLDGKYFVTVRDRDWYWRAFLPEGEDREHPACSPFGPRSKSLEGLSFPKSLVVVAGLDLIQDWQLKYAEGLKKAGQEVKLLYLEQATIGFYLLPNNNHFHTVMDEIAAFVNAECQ
T1 sequence (Q9LQT8 1-533 partner): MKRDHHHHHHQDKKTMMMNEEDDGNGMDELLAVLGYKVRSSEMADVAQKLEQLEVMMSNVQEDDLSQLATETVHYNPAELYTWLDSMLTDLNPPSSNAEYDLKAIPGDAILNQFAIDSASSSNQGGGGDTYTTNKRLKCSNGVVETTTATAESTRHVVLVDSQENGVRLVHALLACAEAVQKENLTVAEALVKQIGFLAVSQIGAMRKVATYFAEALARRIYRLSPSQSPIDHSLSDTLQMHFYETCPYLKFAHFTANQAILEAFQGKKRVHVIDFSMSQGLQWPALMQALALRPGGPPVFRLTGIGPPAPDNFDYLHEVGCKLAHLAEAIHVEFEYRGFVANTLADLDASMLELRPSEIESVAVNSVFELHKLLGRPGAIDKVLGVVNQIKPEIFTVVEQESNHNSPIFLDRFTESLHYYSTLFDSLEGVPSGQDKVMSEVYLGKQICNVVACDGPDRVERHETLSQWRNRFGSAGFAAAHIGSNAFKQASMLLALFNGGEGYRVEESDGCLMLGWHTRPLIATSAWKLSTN
Assay: Scatchard analysis of AtGID1c-GA binding in the presence of GAI
Protocol: Panel A) depicts AtGID1-AtDELLA interaction in the presence of GA in two types of yeast hybrid (Y2H) assays. Each AtGID1 was used as a bait while AtDELLA was a prey. GA4 (10^−5 M) was added to the medium. The bars indicates β-galactosidase activity when o-nitrophenol-β-D-galactopyranoside was used as a substrate (Assay B). The growth of each transformant in the defined medium for 2 days (Assay A) is shown beneath of each bar graph. The experiment was carried out in quadruplicate. The SD value shown in the figure was determined from three measurements. Panel B) depicts the dose response in AtGID1-RGA interaction in Assay B of Y2H. GA4 (10^−5 to 10^−9 M) was added to the medium. The experiment was conducted in […]. The SD value shown in the figure was determined from three measurements. Panel C) depicts the results of an evaluation of the in vitro GA-binding potency of AtGID1 using AtDELLA. […] GAI (G) or RGA (R) was added, and then the GA-binding activity in each reaction mixture was measured according to the standard method. […] The SD value was determined from three measurements. […]
Next, whether AtDELLAs exert some kind of influence on the GA-binding activity of AtGID1s was examined in vitro. After labeled 16,17-dihydro-GA4 and AtGID1s were combined, AtDELLAs were added to the solutions, and the GA-binding activity was measured. […]

In the case of CC1C[C@]23C[C@H]1CCC2[C@]12CC[C@H](O)[C@](C)(C(=O)O1)[C@H]2[C@@H]3C(=O)O (stereo partly shown) [H2-GA4, 16,17-dihydro-GA4], the Kd is reported as 46 nM.
